Laboratory results published in patent publication US11564969B2, “Immunorhelin compounds for intracellular infections” (ISR IMMUNE SYSTEM REGULATION HOLDING AB (PUBL), priority 2017, dated 2023).
Structures can show the parent of a compound that is named as a salt. Where two headings read alike, the source gives them in different places. Square brackets hold non-standard residues; d marks the D form. Peptide text beside a SMILES is read from it. * marks the point of attachment. d2Nal = N[C@H](Cc1ccc2ccccc2c1)C(=O)O; pGlu = O=C1CC[C@@H](C(=O)O)N1; tBu = CC(C)(C)*

Tests used:
[1] = Solubility analysis in PBS (Analysis Method B); format: physicochemical; conditions: pH 7.4
Procedure: The solubility of compounds of the invention was tested as described in the general methods. Solubility was then graded according to a rating between 1 to 5, where 1 is most soluble and 5 is least soluble.

GnRHR = target: T1, GnRHR (Homo sapiens, UniProt P30968)
T1 sequence (P30968 1-328): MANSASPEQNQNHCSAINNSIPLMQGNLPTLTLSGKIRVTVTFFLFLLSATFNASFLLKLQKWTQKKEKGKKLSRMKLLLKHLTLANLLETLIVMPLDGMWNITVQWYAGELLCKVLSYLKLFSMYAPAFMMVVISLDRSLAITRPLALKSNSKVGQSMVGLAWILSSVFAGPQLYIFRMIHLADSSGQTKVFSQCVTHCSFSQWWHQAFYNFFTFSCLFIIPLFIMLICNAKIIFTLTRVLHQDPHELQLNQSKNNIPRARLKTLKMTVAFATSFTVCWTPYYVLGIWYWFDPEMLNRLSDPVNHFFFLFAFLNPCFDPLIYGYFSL

Structure (SMILES) | Solubility grading [1] | GNRHR Stimulation at 1 μM (GnRHR; 1000.0) | GNRHR Stimulation at 1 μM (GnRHR; 1 μM, calcium assay, CHO-K1 cells)
CCNC(=O)[C@@H]1CCCN1C(=O)[C@H](CCCNC(=N)N)NC(=O)[C@H](CC(C)C)NC(=O)[C@@H](COC(C)(C)C)NC(=O)[C@H](Cc1c[nH]cn1)NC(=O)[C@H](CO)NC(=O)[C@H](Cc1c[nH]c2ccccc12)NC(=O)[C@H](Cc1c[nH]cn1)NC(=O)[C@@H]1CCC(=O)N1 [Compound 6, pGlu-His-Trp-Ser-His-D-Ser(tBu)-Leu-Arg-Pro-NHEt] ([pGlu]HWSH[dS](tBu)LRP-NHEt) | 1 | 88 percentage | –
CCNC(=O)[C@@H]1CCCN1C(=O)[C@H](CCCNC(=N)N)NC(=O)[C@H](Cc1c[nH]c2ccccc12)NC(=O)[C@@H](COC(C)(C)C)NC(=O)[C@H](Cc1ccc(O)cc1)NC(=O)[C@H](CO)NC(=O)[C@H](Cc1c[nH]c2ccccc12)NC(=O)[C@H](Cc1c[nH]cn1)NC(=O)[C@@H]1CCC(=O)N1 [Compound 8, pGlu-His-Trp-Ser-Tyr-D-Ser(tBu)-Trp-Arg-Pro-NHEt] ([pGlu]HWSY[dS](tBu)WRP-NHEt) | 2 | 86 percentage | –
CCNC(=O)[C@@H]1CCCN1C(=O)[C@H](Cc1ccc(O)cc1)NC(=O)[C@H](CC(C)C)NC(=O)[C@@H](COC(C)(C)C)NC(=O)[C@H](Cc1ccc(O)cc1)NC(=O)[C@H](CO)NC(=O)[C@H](Cc1c[nH]c2ccccc12)NC(=O)[C@H](Cc1c[nH]cn1)NC(=O)[C@@H]1CCC(=O)N1 [Compound 9, pGlu-His-Trp-Ser-Tyr-D-Ser(tBu)-Leu-Tyr-Pro-NHEt] ([pGlu]HWSY[dS](tBu)LYP-NHEt) | 1 | 78 percentage | –
CCNC(=O)[C@@H]1CCCN1C(=O)[C@H](CCCNC(=N)N)NC(=O)[C@H](Cc1c[nH]c2ccccc12)NC(=O)[C@@H](COC(C)(C)C)NC(=O)[C@H](Cc1c[nH]cn1)NC(=O)[C@H](CO)NC(=O)[C@H](Cc1c[nH]c2ccccc12)NC(=O)[C@H](Cc1c[nH]cn1)NC(=O)[C@@H]1CCC(=O)N1 [Compound 10, pGlu-His-Trp-Ser-His-D-Ser(tBu)-Trp-Arg-Pro-NHEt] ([pGlu]HWSH[dS](tBu)WRP-NHEt) | 1 | 81 percentage | –
CCNC(=O)[C@@H]1CCCN1C(=O)[C@H](Cc1ccc(O)cc1)NC(=O)[C@H](CC(C)C)NC(=O)[C@@H](COC(C)(C)C)NC(=O)[C@H](Cc1c[nH]cn1)NC(=O)[C@H](CO)NC(=O)[C@H](Cc1c[nH]c2ccccc12)NC(=O)[C@H](Cc1c[nH]cn1)NC(=O)[C@@H]1CCC(=O)N1 [Compound 11, pGlu-His-Trp-Ser-His-D-Ser(tBu)-Leu-Tyr-Pro-NHEt] ([pGlu]HWSH[dS](tBu)LYP-NHEt) | 1 | 76 percentage | –
CCNC(=O)[C@@H]1CCCN1C(=O)[C@H](Cc1ccc(O)cc1)NC(=O)[C@H](Cc1c[nH]c2ccccc12)NC(=O)[C@@H](COC(C)(C)C)NC(=O)[C@H](Cc1ccc(O)cc1)NC(=O)[C@H](CO)NC(=O)[C@H](Cc1c[nH]c2ccccc12)NC(=O)[C@H](Cc1c[nH]cn1)NC(=O)[C@@H]1CCC(=O)N1 [Compound 12, pGlu-His-Trp-Ser-Tyr-D-Ser(tBu)-Trp-Tyr-Pro-NHEt] ([pGlu]HWSY[dS](tBu)WYP-NHEt) | 4 | 80 percentage | –
CCNC(=O)[C@@H]1CCCN1C(=O)[C@H](Cc1ccc(O)cc1)NC(=O)[C@H](Cc1c[nH]c2ccccc12)NC(=O)[C@@H](COC(C)(C)C)NC(=O)[C@H](Cc1c[nH]cn1)NC(=O)[C@H](CO)NC(=O)[C@H](Cc1c[nH]c2ccccc12)NC(=O)[C@H](Cc1c[nH]cn1)NC(=O)[C@@H]1CCC(=O)N1 [Compound 13, pGlu-His-Trp-Ser-His-D-Ser(tBu)-Trp-Tyr-Pro-NHEt] ([pGlu]HWSH[dS](tBu)WYP-NHEt) | 3 | 87 percentage | –
CC(C)C[C@H](NC(=O)[C@@H](Cc1c[nH]c2ccccc12)NC(=O)[C@H](Cc1ccc(O)cc1)NC(=O)[C@H](CO)NC(=O)[C@H](Cc1c[nH]c2ccccc12)NC(=O)[C@H](Cc1c[nH]cn1)NC(=O)[C@@H]1CCC(=O)N1)C(=O)N[C@@H](Cc1ccc(O)cc1)C(=O)N1CCC[C@H]1C(=O)NCC(N)=O [Compound 14, pGlu-His-Trp-Ser-Tyr-D-Trp-Leu-Tyr-Pro-Gly-amide] ([pGlu]HWSY[dW]LYPG-NH2) | 4 | – | –
CC(C)C[C@H](NC(=O)[C@@H](Cc1c[nH]c2ccccc12)NC(=O)[C@H](Cc1c[nH]cn1)NC(=O)[C@H](CO)NC(=O)[C@H](Cc1c[nH]c2ccccc12)NC(=O)[C@H](Cc1c[nH]cn1)NC(=O)[C@@H]1CCC(=O)N1)C(=O)N[C@@H](Cc1ccc(O)cc1)C(=O)N1CCC[C@H]1C(=O)NCC(N)=O [Compound 16, pGlu-His-Trp-Ser-His-D-Trp-Leu-Tyr-Pro-Gly-amide] ([pGlu]HWSH[dW]LYPG-NH2) | 2 | – | –
N=C(N)NCCC[C@H](NC(=O)[C@H](Cc1c[nH]c2ccccc12)NC(=O)[C@@H](Cc1c[nH]c2ccccc12)NC(=O)[C@H](Cc1c[nH]cn1)NC(=O)[C@H](CO)NC(=O)[C@H](Cc1c[nH]c2ccccc12)NC(=O)[C@H](Cc1c[nH]cn1)NC(=O)[C@@H]1CCC(=O)N1)C(=O)N1CCC[C@H]1C(=O)NCC(N)=O [Compound 20, pGlu-His-Trp-Ser-His-D-Trp-Trp-Arg-Pro-NHEt] | 3 | – | –
CC(C)C[C@H](NC(=O)[C@@H](Cc1ccc2ccccc2c1)NC(=O)[C@H](Cc1c[nH]cn1)NC(=O)[C@H](CO)NC(=O)[C@H](Cc1c[nH]c2ccccc12)NC(=O)[C@H](Cc1c[nH]cn1)NC(=O)[C@@H]1CCC(=O)N1)C(=O)N[C@@H](CCCNC(=N)N)C(=O)N1CCC[C@H]1C(=O)NCC(N)=O [Compound 23, pGlu-His-Trp-Ser-His-D-Nal-Leu-Arg-Pro-Gly-amide] ([pGlu]HWSH[d2Nal]LRPG-NH2) | 1 | 106 percentage | –
N=C(N)NCCC[C@H](NC(=O)[C@H](Cc1c[nH]c2ccccc12)NC(=O)[C@@H](Cc1ccc2ccccc2c1)NC(=O)[C@H](Cc1ccc(O)cc1)NC(=O)[C@H](CO)NC(=O)[C@H](Cc1c[nH]c2ccccc12)NC(=O)[C@H](Cc1c[nH]cn1)NC(=O)[C@@H]1CCC(=O)N1)C(=O)N1CCC[C@H]1C(=O)NCC(N)=O [Compound 24, pGlu-His-Trp-Ser-Tyr-D-Nal-Trp-Arg-Pro-Gly-amide] ([pGlu]HWSY[d2Nal]WRPG-NH2) | 5 | 87 percentage | –
CCNC(=O)[C@@H]1CCCN1C(=O)[C@H](CCCNC(=N)N)NC(=O)[C@H](CC(C)C)NC(=O)[C@@H](Cc1cn(Cc2ccccc2)cn1)NC(=O)[C@H](Cc1ccc(O)cc1)NC(=O)[C@H](CO)NC(=O)[C@H](Cc1c[nH]c2ccccc12)NC(=O)[C@H](Cc1cnc[nH]1)NC(=O)[C@@H]1CCC(=O)N1 [Histrelin TFA, histrelin, reference compound] | 2 | – | –
CCNC(=O)[C@@H]1CCCN1C(=O)[C@H](CCCNC(=N)N)NC(=O)[C@H](CC(C)C)NC(=O)[C@@H](Cc1cn(Cc2ccccc2)cn1)NC(=O)[C@H](Cc1ccc(O)cc1)NC(=O)[C@H](CO)NC(=O)[C@H](Cc1c[nH]c2ccccc12)NC(=O)[C@H](Cc1cnc[nH]1)NC(=O)[C@@H]1CCC(=O)N1 [Histrelin acetate, histrelin, reference compound] | 4 | – | –
CCNC(=O)[C@@H]1CCCN1C(=O)[C@H](CCCNC(=N)N)NC(=O)[C@H](CC(C)C)NC(=O)[C@@H](CC(C)C)NC(=O)[C@H](Cc1ccc(O)cc1)NC(=O)[C@H](CO)NC(=O)[C@H](Cc1c[nH]c2ccccc12)NC(=O)[C@H](Cc1c[nH]cn1)NC(=O)[C@@H]1CCC(=O)N1 [Leuprorelin TFA, leuprorelin, reference compound] | 1 | – | –
CCNC(=O)[C@@H]1CCCN1C(=O)[C@H](CCCNC(=N)N)NC(=O)[C@H](CC(C)C)NC(=O)[C@@H](CC(C)C)NC(=O)[C@H](Cc1ccc(O)cc1)NC(=O)[C@H](CO)NC(=O)[C@H](Cc1c[nH]c2ccccc12)NC(=O)[C@H](Cc1c[nH]cn1)NC(=O)[C@@H]1CCC(=O)N1 [Leuprorelin acetate, leuprorelin, reference compound] | 2 | – | –
CC(C)C[C@H](NC(=O)[C@@H](Cc1ccc2ccccc2c1)NC(=O)[C@H](Cc1ccc(O)cc1)NC(=O)[C@H](CO)NC(=O)[C@H](Cc1c[nH]c2ccccc12)NC(=O)[C@H](Cc1c[nH]cn1)NC(=O)[C@@H]1CCC(=O)N1)C(=O)N[C@@H](CCCNC(=N)N)C(=O)N1CCC[C@H]1C(=O)NCC(N)=O [Nafarelin, nafarelin, reference compound] | – | – | 100 (n = 2) percentage
CC(C)C[C@H](NC(=O)[C@@H](Cc1ccc2ccccc2c1)NC(=O)[C@H](Cc1ccc(O)cc1)NC(=O)[C@H](CO)NC(=O)[C@H](Cc1c[nH]c2ccccc12)NC(=O)[C@H](Cc1c[nH]cn1)NC(=O)[C@@H]1CCC(=O)N1)C(=O)N[C@@H](CCCNC(=N)N)C(=O)N1CCC[C@H]1C(=O)NCC(N)=O [Naferelin TFA, nafarelin, reference compound] | 1 | – | –
CC(C)C[C@H](NC(=O)[C@@H](Cc1ccc2ccccc2c1)NC(=O)[C@H](Cc1ccc(O)cc1)NC(=O)[C@H](CO)NC(=O)[C@H](Cc1c[nH]c2ccccc12)NC(=O)[C@H](Cc1c[nH]cn1)NC(=O)[C@@H]1CCC(=O)N1)C(=O)N[C@@H](CCCNC(=N)N)C(=O)N1CCC[C@H]1C(=O)NCC(N)=O [Naferelin acetate, nafarelin, reference compound] | 2 | – | –
